Results: patent US20070117743A1, “New antitumoral compounds” (priority 2003, published 2007)
Read-outs that look alike come from different tables or passages of the source.

Assays:
Type in all cases: cell-based, human
[1] = tested on: DU-145; assay: SRB colorimetric assay of cell growth and viability, DU-145; conditions: 48 hours exposure
[2] = tested on: LoVo; assay: SRB colorimetric assay of cell growth and viability, LoVo; conditions: 48 hours exposure; for CC50: read-out: LC50 LOVO
[3] = tested on: LoVo-Dox; assay: SRB colorimetric assay of cell growth and viability, LoVo-Dox; conditions: 48 hours exposure; for CC50: read-out: LC50 LOVO-DOX
Method in brief: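 Sulforhodamine B assay run after 48 h of continuous drug contact; cells seeded 5×10^3/well in RPMI 1640 10% FBS, attached 18 h. Triplicate OD490 values give cytostatic (TGI), cytotoxic (LC) and GI parameters.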

[4] = tested on: IGROV-1; assay: SRB colorimetric assay of cell growth and viability, IGROV-1; conditions: 48 hours exposure
[5] = tested on: SK-MEL-28; assay: SRB colorimetric assay of cell growth and viability, SK-MEL-28; conditions: 48 hours exposure; for CC50: read-out: LC50 MEL-28
[6] = tested on: HeLa; assay: SRB colorimetric assay of cell growth and viability, HeLa; conditions: 48 hours exposure; for CC50: read-out: LC50 HELA
[7] = tested on: IGROV-ET; assay: SRB colorimetric assay of cell growth and viability, IGROV-ET; conditions: 48 hours exposure; for CC50: read-out: LC50 IGROV-ET
[8] = tested on: A-549; assay: SRB colorimetric assay of cell growth and viability, A-549; conditions: 48 hours exposure; for GI50: read-out: GI50 A-549; for CC50: read-out: LC50 A-549
[9] = tested on: HT-29; assay: SRB colorimetric assay of cell growth and viability, HT-29; conditions: 48 hours exposure; for GI50: read-out: GI50 HT-29; for CC50: read-out: LC50 HT-29
[10] = tested on: SK-BR-3; assay: SRB colorimetric assay of cell growth and viability, SK-BR-3; conditions: 48 hours exposure
Description: The finality of this assay is to interrupt the growth of a “in vitro” tumor cell culture by means a continued exhibition of the cells to the sample to be testing.
This form of the assay employs 96 well cell culture microplates of 9 mm diameter (Faircloth, 1988; Mosmann, 1983). Most of the cell lines are obtained from American Type Culture Collection (ATCC) derived from different human cancer types.
Cells are maintained in RPMI 1640 10% FBS, supplemented with 0.1 g/l penicillin and 0.1 g/l streptomycin sulfate and then incubated at 37° C., 5% CO2 and 98% humidity. For the experiments, cells were harvested from subconfluent cultures using trypsin and resuspended in fresh medium before plating.
Cells are seeded in 96 well microtiter plates, at 5×10^3 cells per well in aliquots of 195 μL medium, and they are allowed to attach to the plate surface by growing in drug free medium for 18 hours. Afterward, samples are added in aliquots of 5 μL in a ranging from 10 to 10^−8 μg/mL, dissolved in DMSO:EtOH:PBS (0.5:0.5:99). After 48 hours exposure, the antitumor effect are measured by the SRB methodology: cells are fixed by adding 50 μL of cold 50% (wt/vol) trichloroacetic acid (TCA) and incubating for 60 minutes at 4° C. Plates are washed with deionized water and dried. One hundred μL of SRB solution (0.4% wt/vol in 1% acetic acid) is added to each microtiter well and incubated for 10 minutes at room temperature. Unbound SRB is removed by washing with 1% acetic acid. Plates are air dried and bound stain is solubilized with Tris buffer. Optical densities are read on a automated spectrophotometric plate reader at a single wavelength of 490 nm.
The values for mean+/− SD of data from triplicate wells are calculated. Some parameters for cellular responses can be calculated: GI=growth inhibition, TGI=total growth inhibition (cytostatic effect) and LC=cell killing (cytotoxic effect).

[11] = tested on: PANC-1; assay: SRB colorimetric assay of cell growth and viability, PANC-1; conditions: 48 hours exposure; for CC50: read-out: LC50 PANC-1
[12] = tested on: K-562; assay: SRB colorimetric assay of cell growth and viability, K-562; conditions: 48 hours exposure; for CC50: read-out: LC50 K-562
[13] = tested on: HeLa-APL; assay: SRB colorimetric assay of cell growth and viability, HeLa-APL; conditions: 48 hours exposure; for CC50: read-out: LC50 HELA-APL

SMILES: C/C=C1\NC(=O)[C@H](Cc2ccccc2)N(C)C(=O)[C@@H](C(C)C)NC(=O)[C@@H]([C@@H](C)CC)NC(=O)[C@H](NC(=O)[C@H](NC(=O)[C@H](CCCN)NC(=O)[C@H]2CCCN2C(=O)[C@H](NC(=O)[C@@H](NC(=O)[C@@H](NC(=O)[C@H](NC(=O)CC[C@@H](C)CC)C(C)C)[C@@H](C)O)C(C)C)C(C)C)[C@@H](C)CC)[C@@H](C)OC(=O)[C@H](C(C)C)NC1=O [Compound 80, [NMePhe^3, (4S)-MeHex^14]-KF]
- GI50 ([1]; SRB): 1070 nM
- LC50 (concentration causing 50% net cell kill) ([1]; SRB): 3620 nM
- TGI DU-145 ([1]; SRB): 1.97E−06 Molar
- GI50 ([2]; SRB): 125 nM
- TGI LOVO ([2]; SRB): 2.61E−07 Molar
- CC50 ([2]; SRB): 545 nM
- GI50 ([3]; SRB): 120 nM
- TGI LOVO-DOX ([3]; SRB): 2.08E−07 Molar
- CC50 ([3]; SRB): 359 nM
- GI50 ([4]; SRB): 416 nM
- LC50 (concentration causing 50% net cell killing) ([4]; SRB): 2820 nM
- TGI IGROV ([4]; SRB): 1.17E−06 Molar
- GI50 ([5]; SRB): 1320 nM
- TGI MEL-28 ([5]; SRB): 2.25E−06 Molar
- CC50 ([5]; SRB): 3840 nM
- GI50 ([6]; SRB): 392 nM
- TGI HELA ([6]; SRB): 1.19E−06 Molar
- CC50 ([6]; SRB): 2510 nM
- GI50 ([7]; SRB): 583 nM
- TGI IGROV-ET ([7]; SRB): 1.39E−06 Molar
- CC50 ([7]; SRB): 3040 nM
- TGI A-549 ([8]; SRB): 2.03E−06 Molar
- GI50 ([8]; SRB): 1130 nM
- CC50 ([8]; SRB): 3670 nM
- TGI HT-29 ([9]; SRB): 4.03E−07 Molar
- GI50 ([9]; SRB): 178 nM
- CC50 ([9]; SRB): 1200 nM
- GI50 ([10]; SRB): 123 nM
- LC50 ([10]; SRB): 1430 nM
- TGI SK-BR-3 ([10]; SRB): 3.29E−07 Molar
- GI50 ([11]; SRB): 1900 nM
- TGI PANC-1 ([11]; SRB): 3.82E−06 Molar
- CC50 ([11]; SRB): 6700 nM
- GI50 ([12]; SRB): 744 nM
- TGI K-562 ([12]; SRB): 1.62E−06 Molar
- CC50 ([12]; SRB): 3540 nM
- GI50 ([13]; SRB): 845 nM
- TGI HELA-APL ([13]; SRB): 1.64E−06 Molar
- CC50 ([13]; SRB): 3190 nM

SMILES: C/C=C1\NC(=O)[C@H](Cc2cccc(Cl)c2)NC(=O)[C@@H](C(C)C)NC(=O)[C@@H]([C@@H](C)CC)NC(=O)[C@H](NC(=O)[C@H](NC(=O)[C@H](CCCN)NC(=O)[C@H]2CCCN2C(=O)[C@H](NC(=O)[C@@H](NC(=O)[C@@H](NC(=O)[C@H](NC(=O)CCCC(C)C)C(C)C)[C@@H](C)O)C(C)C)C(C)C)[C@@H](C)CC)[C@@H](C)OC(=O)[C@H](C(C)C)NC1=O [Compound 82, [Phe(3-Cl)^3]-KF]
- GI50 ([1]; DU-145): 209 nM
- LC50 (concentration causing 50% net cell kill) ([1]; DU-145): 553 nM
- TGI DU-145 ([1]; DU-145): 3.40E−07 Molar
- GI50 ([2]; LOVO): 40.6 nM
- TGI LOVO ([2]; LOVO): 8.73E−08 Molar
- CC50 ([2]; LOVO): 180 nM
- GI50 ([3]; LOVO-DOX): 45.3 nM
- TGI LOVO-DOX ([3]; LOVO-DOX): 9.10E−08 Molar
- CC50 ([3]; LOVO-DOX): 892 nM
- GI50 ([4]; IGROV): 69.5 nM
- LC50 (concentration causing 50% net cell killing) ([4]; IGROV): 182 nM
- TGI IGROV ([4]; IGROV): 1.13E−07 Molar
- GI50 ([5]; MEL-28): 297 nM
- TGI MEL-28 ([5]; MEL-28): 4.41E−07 Molar
- CC50 ([5]; MEL-28): 935 nM
- GI50 ([6]; HELA): 127 nM
- TGI HELA ([6]; HELA): 2.75E−07 Molar
- CC50 ([6]; HELA): 521 nM
- GI50 ([7]; IGROV-ET): 110 nM
- TGI IGROV-ET ([7]; IGROV-ET): 2.20E−07 Molar
- CC50 ([7]; IGROV-ET): 576 nM
- TGI A-549 ([8]; A-549): 6.03E−07 Molar
- GI50 ([8]; A-549): 291 nM
- CC50 ([8]; A-549): 1490 nM
- TGI HT-29 ([9]; HT-29): 1.19E−07 Molar
- GI50 ([9]; HT-29): 77.5 nM
- CC50 ([9]; HT-29): 187 nM
- GI50 ([10]; SK-BR-3): 58.9 nM
- LC50 ([10]; SK-BR-3): 184 nM
- TGI SK-BR-3 ([10]; SK-BR-3): 1.04E−07 Molar
- GI50 ([11]; PANC-1): 965 nM
- TGI PANC-1 ([11]; PANC-1): 1.84E−06 Molar
- CC50 ([11]; PANC-1): 1840 nM
- GI50 ([12]; K-562): 658 nM
- TGI K-562 ([12]; K-562): 1.02E−06 Molar
- CC50 ([12]; K-562): 1590 nM
- GI50 ([13]; HELA-APL): 192 nM
- TGI HELA-APL ([13]; HELA-APL): 3.25E−07 Molar
- CC50 ([13]; HELA-APL): 551 nM
